# Measurements from patent US20180008587A1, “THIOHYDANTOIN ANDROGEN RECEPTOR ANTAGONISTS FOR THE TREATMENT OF CANCER” (Jaressen Pharmaceutica NV, priority 2016, published 2018).
# Numbering of substitutions follows the chain as printed. Where two headings read alike, the source gives them in different places.
# How the values were obtained:
# Assay type in all cases: cell-based
# [1] = molecular target: T1, wild-type Androgen Receptor (AR-wt) (Homo sapiens, UniProt P10275); assay: LNCaP-AR-wt ANT reporter assay (ARE firefly luciferase, antagonist mode); conditions: for IC50: antagonist mode, 400 pM R-1881 challenge, −Log10(IC50 [Molar]), read-out: LNCaP-AR-wt ANT pIC50 (converted); for Emax: read-out: LNCaP-AR-wt ANT MAX % Inh
# T1 construct: expressed in transfected cells; host or cells: LNCaP (LNCaP AR (cs))
# T1 sequence (P10275 1-920): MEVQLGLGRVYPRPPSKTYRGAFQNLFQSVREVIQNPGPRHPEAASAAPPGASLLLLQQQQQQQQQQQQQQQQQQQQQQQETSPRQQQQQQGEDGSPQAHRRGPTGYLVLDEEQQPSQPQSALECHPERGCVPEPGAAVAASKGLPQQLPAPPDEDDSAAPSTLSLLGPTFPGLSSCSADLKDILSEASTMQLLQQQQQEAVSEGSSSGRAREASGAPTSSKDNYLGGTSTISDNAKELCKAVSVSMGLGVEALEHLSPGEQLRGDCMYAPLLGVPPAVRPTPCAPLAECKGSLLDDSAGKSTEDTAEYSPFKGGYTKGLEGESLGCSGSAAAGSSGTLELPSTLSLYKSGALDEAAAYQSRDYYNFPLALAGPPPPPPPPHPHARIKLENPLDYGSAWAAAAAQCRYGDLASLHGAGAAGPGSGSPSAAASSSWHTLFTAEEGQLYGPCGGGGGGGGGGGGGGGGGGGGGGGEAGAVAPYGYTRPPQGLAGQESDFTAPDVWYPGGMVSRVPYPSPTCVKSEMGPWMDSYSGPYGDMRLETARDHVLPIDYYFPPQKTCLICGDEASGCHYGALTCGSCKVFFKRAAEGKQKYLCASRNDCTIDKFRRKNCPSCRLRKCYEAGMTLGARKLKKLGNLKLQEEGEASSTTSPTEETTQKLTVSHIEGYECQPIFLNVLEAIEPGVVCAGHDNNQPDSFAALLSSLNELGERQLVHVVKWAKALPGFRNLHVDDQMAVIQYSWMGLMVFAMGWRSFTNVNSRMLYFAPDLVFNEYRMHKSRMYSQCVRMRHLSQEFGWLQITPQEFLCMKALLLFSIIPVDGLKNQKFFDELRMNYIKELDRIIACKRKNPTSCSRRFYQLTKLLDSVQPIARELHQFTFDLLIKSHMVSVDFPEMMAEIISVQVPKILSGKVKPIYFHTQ
# Method in brief: (§1)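 Read-out is luciferase luminescence taken 1 h after Steady-Glo addition, following 20-24 h compound exposure at 37 °C in LNCaP pools stably carrying wild-type or F876L AR. Cells were grown in charcoal-stripped serum. Antagonist wells received agonist at 400 pM (WT) or 600 pM (F876L).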
# [2] = molecular target: T1, wild-type Androgen Receptor (AR-wt); assay: LNCaP-AR-wt AG reporter assay (ARE firefly luciferase, agonist mode); conditions: for Emax: read-out: LNCaP-AR-wt AG MAX % Stim
# Method in brief: (§2)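 LNCaP stable pooled lines expressing ARE-firefly luciferase, in charcoal-stripped serum medium, were exposed to compounds; antagonist mode used agonist at 400 pM (WT) or 600 pM (F876L).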
# [3] = molecular target: T2, F876L mutant Androgen Receptor (AR-F876L) (Homo sapiens, UniProt P10275, F877L); assay: LNCaP-AR-F876L AG reporter assay (ARE firefly luciferase, agonist mode); conditions: for Emax: read-out: LNCaP-AR-F876L AG MAX % Stim
# T2 construct: expressed in transfected cells; host or cells: LNCaP (LNCaP F876L)
# T2 sequence (P10275 1-920 F877L): T1 sequence (P10275 1-920) with F877L
# Method in brief: as §2
# [4] = molecular target: T2, F876L mutant Androgen Receptor (AR-F876L); assay: LNCaP-AR-F876L ANT reporter assay (ARE firefly luciferase, antagonist mode); conditions: for Emax: read-out: LNCaP-AR-F876L ANT MAX % Inh; for IC50: read-out: LNCaP-AR-F876L ANT pIC50 (converted)
# Method in brief: as §1
# [5] = maximum % inhibition of R1881 control response over tested concentration range
# [6] = agonist mode, −Log10(EC50 [Molar]), read-out: LNCaP-AR-wt AG pEC50 (converted)
# [7] = maximum % stimulation (agonist response) over tested concentration range
# [8] = agonist mode, −Log10(EC50 [Molar]), read-out: LNCaP-AR-F876L AG pEC50 (converted)
SMILES,IC50 [1] [µM],"Emax [1, 5] [%]","EC50 [2, 6] [µM]","Emax [2, 7] [%]","EC50 [3, 8] [µM]","Emax [3, 7] [%]","Emax [4, 5] [%]",IC50 [4] [µM],Emax [1] [%],EC50 [2] [µM],Emax [2] [%],EC50 [3] [µM],Emax [3] [%],Emax [4] [%]
"N#Cc1ncc(N2C(=O)C3(CCC3)N(c3ccc(OCCN4CCNCC4)c(F)c3)C2=S)cc1C(F)(F)F [Cpd 105, 5-[8-[3-fluoro-4-(2-piperazin-1-ylethoxy)phenyl]-5-oxo-7-thioxo-6,8-diazaspiro[3.4]octan-6-yl]-3-(trifluoromethyl)pyridine-2-carbonitrile]",0.575,95.7,> 15.1,1.2,> 15.1,2.3,95.3,0.49,–,–,–,–,–,–
"N#Cc1ncc(N2C(=O)C3(CCC3)N(c3ccc(C(F)(F)F)cc3)C2=S)cc1C(F)(F)F [Cpd 98, 5-[5-oxo-7-thioxo-8-[4-(trifluoromethyl)phenyl]-6,8-diazaspiro[3.4]octan-6-yl]-3-(trifluoromethyl)pyridine-2-carbonitrile]",0.295,102,> 15.1,0,> 15.1,1.6,98.9,0.245,–,–,–,–,–,–
"N#Cc1ncc(N2C(=O)C3(CCC3)N(c3ccc(C(=O)NCc4cccnc4)c(F)c3)C2=S)cc1C(F)(F)F [Cpd 67, 4-[6-[6-cyano-5-(trifluoromethyl)-3-pyridyl]-5-oxo-7-thioxo-6,8-diazaspiro[3.4]octan-8-yl]-2-fluoro-N-(3-pyridylmethyl)benzamide]",1.26,–,–,–,–,–,–,0.407,99.2,> 15.1,1.5,> 15.1,0.8,97.4
"Cc1cc(N2C(=O)C3(CCC3)N(c3ccc(C(=O)NCc4cccs4)c(F)c3)C2=S)cnc1C#N [Cpd 33, 4-[6-(6-cyano-5-methyl-3-pyridyl)-5-oxo-7-thioxo-6,8-diazaspiro[3.4]octan-8-yl]-2-fluoro-N-(2-thienylmethyl)benzamide]",1.23,99.6,> 15.1,0.3,> 15.1,0.3,100,0.49,–,–,–,–,–,–
"Cc1cc(N2C(=O)C3(CCC3)N(c3ccc(OCCN4CCN(C)CC4)cc3)C2=S)cnc1C#N [Cpd 10, 3-methyl-5-[8-[4-[2-(4-methylpiperazin-1-yl)ethoxy]phenyl]-5-oxo-7-thioxo-6,8-diazaspiro[3.4]octan-6-yl]pyridine-2-carbonitrile]",0.724,99,> 15.1,0.6,> 15.1,0.1,98.4,0.49,–,–,–,–,–,–
"N#Cc1ncc(N2C(=O)C3(CCC3)N(c3ccc4ccccc4c3)C2=S)cc1C(F)(F)F [Cpd 18, 5-[8-(2-naphthyl)-5-oxo-7-thioxo-6,8-diazaspiro[3.4]octan-6-yl]-3-(trifluoromethyl)pyridine-2-carbonitrile]",0.204,–,–,–,–,–,–,0.191,101,> 15.1,-0.2,> 15.1,0,101
"CCCNC(=O)c1ccc(N2C(=S)N(c3cnc(C#N)c(C(F)(F)F)c3)C(=O)C23CCC3)cc1F [Cpd 68, 4-[6-[6-cyano-5-(trifluoromethyl)-3-pyridyl]-5-oxo-7-thioxo-6,8-diazaspiro[3.4]octan-8-yl]-2-fluoro-N-propyl-benzamide]",0.589,–,–,–,–,–,–,0.427,96.7,> 15.1,0.2,> 15.1,0.9,98
"CN1CCN(Cc2ccc(N3C(=S)N(c4cnc(C#N)c(C(F)(F)F)c4)C(=O)C34CCC4)cc2)CC1 [Cpd 30, 5-[8-[4-[(4-methylpiperazin-1-yl)methyl]phenyl]-5-oxo-7-thioxo-6,8-diazaspiro[3.4]octan-6-yl]-3-(trifluoromethyl)pyridine-2-carbonitrile]",0.331,100,> 15.1,0.1,> 15.1,0.1,98.8,0.162,–,–,–,–,–,–
"N#Cc1ncc(N2C(=O)C3(CCC3)N(c3ccc4[nH]ncc4c3)C2=S)cc1C(F)(F)F [Cpd 92, 5-[8-(1H-indazol-5-yl)-5-oxo-7-thioxo-6,8-diazaspiro[3.4]octan-6-yl]-3-(trifluoromethyl)pyridine-2-carbonitrile]",0.631,–,–,–,–,–,–,0.257,94.7,> 15.1,2.8,> 15.1,1.3,98.2
"N#Cc1ncc(N2C(=O)C3(CCC3)N(c3ccccc3)C2=S)cc1C(F)(F)F [Cpd 70, 5-(5-oxo-8-phenyl-7-thioxo-6,8-diazaspiro[3.4]octan-6-yl)-3-(trifluoromethyl)pyridine-2-carbonitrile]",0.741,–,–,–,–,–,–,0.513,99.2,> 15.1,0.3,> 15.1,0.9,99.5
"Cc1cc(N2C(=O)C3(CCC3)N(c3ccc(C4CCOCC4)cc3)C2=S)cnc1C#N [Cpd 101, 3-methyl-5-[5-oxo-8-(4-tetrahydropyran-4-ylphenyl)-7-thioxo-6,8-diazaspiro[3.4]octan-6-yl]pyridine-2-carbonitrile]",0.479,–,–,–,–,–,–,0.363,99.4,> 15.1,1.1,> 15.1,1.7,95.3
"N#Cc1ncc(N2C(=O)C3(CCC3)N(c3ccc(C(=O)N4CCCC4)c(F)c3)C2=S)cc1C(F)(F)F [Cpd 52, 5-[8-[3-fluoro-4-(pyrrolidine-1-carbonyl)phenyl]-5-oxo-7-thioxo-6,8-diazaspiro[3.4]octan-6-yl]-3-(trifluoromethyl)pyridine-2-carbonitrile]",0.741,101,> 15.1,0.4,> 15.1,0.4,102,0.468,–,–,–,–,–,–
